Measurements: US20120264735A1 (priority 2009, published 2012)

Molecular target: T1, c-Met kinase (recombinant c-Met) (Homo sapiens, UniProt P08581)
T1 construct: 0.27 nM recombinant c-Met
Assay: In vitro kinase assay I (homogeneous time-resolved fluorescence tyrosine kinase assay)
Type: biochemical
Method in brief: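 Biotinylated peptide (0.5 μM) phosphorylated by 0.2 nM recombinant c-Met with 50 μM MgATP, 60 min at room temperature, pH 7.4, 5% DMSO. EDTA stop; HTRF read with Eu-anti-phosphotyrosine antibody and streptavidin-APC. IC50 from 4-parameter logistic fit.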

T1 sequence (P08581 25-1390): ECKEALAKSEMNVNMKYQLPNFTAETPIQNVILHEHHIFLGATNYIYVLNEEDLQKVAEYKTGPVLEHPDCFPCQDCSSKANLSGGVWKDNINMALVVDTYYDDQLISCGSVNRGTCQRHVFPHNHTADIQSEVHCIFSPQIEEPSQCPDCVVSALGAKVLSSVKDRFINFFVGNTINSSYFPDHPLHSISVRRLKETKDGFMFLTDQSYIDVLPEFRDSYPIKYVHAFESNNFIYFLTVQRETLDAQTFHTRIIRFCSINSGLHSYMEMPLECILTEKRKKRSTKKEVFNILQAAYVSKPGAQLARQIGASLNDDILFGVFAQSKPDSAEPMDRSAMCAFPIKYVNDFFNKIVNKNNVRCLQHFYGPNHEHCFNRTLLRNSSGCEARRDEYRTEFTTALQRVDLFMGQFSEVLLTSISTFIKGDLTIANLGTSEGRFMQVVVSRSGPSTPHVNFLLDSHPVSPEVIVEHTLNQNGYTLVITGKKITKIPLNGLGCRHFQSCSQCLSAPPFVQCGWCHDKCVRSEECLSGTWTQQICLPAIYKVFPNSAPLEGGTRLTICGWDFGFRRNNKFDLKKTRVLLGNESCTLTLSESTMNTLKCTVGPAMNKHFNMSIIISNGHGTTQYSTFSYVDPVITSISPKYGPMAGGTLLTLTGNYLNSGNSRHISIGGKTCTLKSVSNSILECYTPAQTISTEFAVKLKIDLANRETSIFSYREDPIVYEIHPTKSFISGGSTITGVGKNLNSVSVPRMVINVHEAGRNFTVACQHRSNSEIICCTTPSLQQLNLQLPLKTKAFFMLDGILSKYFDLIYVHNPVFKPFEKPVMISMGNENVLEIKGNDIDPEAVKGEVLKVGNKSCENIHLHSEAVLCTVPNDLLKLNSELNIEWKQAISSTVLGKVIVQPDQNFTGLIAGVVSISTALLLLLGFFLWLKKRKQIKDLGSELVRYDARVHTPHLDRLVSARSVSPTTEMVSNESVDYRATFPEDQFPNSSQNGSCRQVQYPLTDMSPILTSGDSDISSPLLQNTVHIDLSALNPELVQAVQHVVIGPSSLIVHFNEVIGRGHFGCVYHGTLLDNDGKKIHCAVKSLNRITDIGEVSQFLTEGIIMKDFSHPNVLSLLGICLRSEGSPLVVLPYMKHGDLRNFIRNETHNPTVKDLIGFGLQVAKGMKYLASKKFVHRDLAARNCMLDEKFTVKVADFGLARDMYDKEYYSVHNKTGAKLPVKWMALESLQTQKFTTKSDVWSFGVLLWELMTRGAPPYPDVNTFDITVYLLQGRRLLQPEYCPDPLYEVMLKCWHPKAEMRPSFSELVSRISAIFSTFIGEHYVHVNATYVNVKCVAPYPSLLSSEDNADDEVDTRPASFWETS

Row | IC50 [µM] | Compound
1 | < 0.1 | CCOc1cnc(-c2cccc(C(C)c3nn(-c4cnn(C)c4)ccc3=O)c2)nc1 (single isomer, unassigned) [Example 202, 3-{(1R or S)-1-[3-(5-ethoxypyrimidin-2-yl)phenyl]ethyl}-1-(1-methyl-1H-pyrazol-4-yl)pyridazin-4(1H)-one]
2 | < 0.1 | CCCOC(=O)Nc1cccc(Cc2nn(-c3ccncc3)ccc2=O)c1 [Example 30, propyl {3-[(4-oxo-1-pyridin-4-yl-1,4-dihydropyridazin-3-yl)methyl]phenyl}carbamate]
3 | < 0.1 | COC(=O)c1cnc(-c2cccc(Cc3nn(-c4cnn(C)c4)ccc3=O)c2)nc1 [Example 15, methyl 2-(3-{[1-(1-methyl-1H-pyrazol-4-yl)-4-oxo-1,4-dihydropyridazin-3-yl]methyl}phenyl)pyrimidine-5-carboxylate]
4 | < 0.1 | Cn1cc(-n2ccc(=O)c(Cc3cccc(-c4ncc(OCc5cccnc5)cn4)c3)n2)cn1 [Example 355, 1-(1-methyl-1H-pyrazol-4-yl)-3-{3-[5-(pyridin-3-ylmethoxy)pyrimidin-2-yl]benzyl}pyridazin-4(1H)-one]
5 | < 0.1 | CN(C)C(=O)CCOC(=O)Nc1cccc(Cc2nn(-c3cc(F)c(F)c(F)c3)ccc2=O)c1 [Example 561, 3-(dimethylamino)-3-oxopropyl (3-{[4-oxo-1-(3,4,5-trifluorophenyl)-1,4-dihydropyridazin-3-yl]methyl}phenyl)carbamate]
6 | < 0.1 | COCCOc1cnc(-c2cccc(Cc3nn(-c4cncc(C#N)c4)ccc3=O)c2)nc1 [Example 132, 5-[3-{3-[5-(2-methoxyethoxy)pyrimidin-2-yl]benzyl}-4-oxopyridazin-1(4H)-yl]pyridine-3-carbonitrile]
7 | < 0.1 | CC(C)COC(=O)Nc1cccc(Cc2nn(-c3cnn(CCCC(=O)O)c3)ccc2=O)c1 [Example 180, 4-{4-[3-(3-{[(2-methylpropoxy)carbonyl]amino}benzyl)-4-oxopyridazin-1(4H)-yl]-1H-pyrazol-1-yl}butanoic acid]
8 | < 0.1 | Cn1cc(-n2ccc(=O)c(Cc3cccc(-c4ncc(OC5CCOCC5)cn4)c3)n2)cn1 [Example 277, 1-(1-methyl-1H-pyrazol-4-yl)-3-{3-[5-(tetrahydro-2H-pyran-4-yloxy)pyrimidin-2-yl]benzyl}pyridazin-4(1H)-one]
9 | < 0.1 | CCOc1cnc(-c2cccc(Cc3nn(-c4cncc(C#N)c4)ccc3=O)c2)nc1 [Example 136, 5-{3-[3-(5-ethoxypyrimidin-2-yl)benzyl]-4-oxopyridazin-1(4H)-yl}pyridine-3-carbonitrile]
10 | < 0.1 | CC(c1cccc(-c2ncc(OC(C)C(C)(C)O)cn2)c1)c1nn(-c2cnn(C)c2)ccc1=O (single isomer, unassigned) [Example 385, 3-{(1R or S)-1-[3-(5-{[(1R or S)-2-hydroxy-1,2-dimethylpropyl]oxy}pyrimidin-2-yl)phenyl]ethyl}-1-(1-methyl-1H-pyrazol-4-yl)pyridazin-4(1H)-one]
11 | < 0.1 | COCCOc1cnc(-c2cccc(Cc3nn(-c4cc(F)cc(F)c4)ccc3=O)c2)nc1 [Example 149, 1-(3,5-difluorophenyl)-3-{3-[5-(2-methoxyethoxy)pyrimidin-2-yl]benzyl}pyridazin-4(1H)-one]
12 | < 0.1 | CCOc1cnc(-c2cccc(Cc3nn(-c4cnn(CC)c4)ccc3=O)c2)nc1 [Example 150, 3-[3-(5-ethoxypyrimidin-2-yl)benzyl]-1-(1-ethyl-1H-pyrazol-4-yl)pyridazin-4(1H)-one]
13 | < 0.1 | Cn1cc(-n2ccc(=O)c(Cc3cccc(-c4ncn(CCC5CCCO5)n4)c3)n2)cn1 (racemic) [Example 711, rac-1-(1-methyl-1H-pyrazol-4-yl)-3-(3-{1-[2-(tetrahydrofuran-2-yl)ethyl]-1H-1,2,4-triazol-3-yl}benzyl)pyridazin-4(1H)-one]
14 | < 0.1 | Cn1cc(-n2ccc(=O)c(Cc3cccc(-c4ncc(OCc5ccsn5)cn4)c3)n2)cn1 [Example 284, 3-{3-[5-(isothiazol-3-ylmethoxy)pyrimidin-2-yl]benzyl}-1-(1-methyl-1H-pyrazol-4-yl)pyridazin-4(1H)-one]
15 | < 0.1 | CN(C)C/C=C/c1cnc(-c2cccc(Cc3nn(-c4cnn(C)c4)ccc3=O)c2)nc1 [Example 403, 3-(3-{5-[(1E)-3-(dimethylamino)prop-1-en-1-yl]pyrimidin-2-yl}benzyl)-1-(1-methyl-1H-pyrazol-4-yl)pyridazin-4(1H)-one]
16 | < 0.1 | CCOc1cnc(-c2ccc(F)c(Cc3nn(-c4cnn(C)c4)ccc3=O)c2)nc1 [Example 118, 3-[5-(5-ethoxypyrimidin-2-yl)-2-fluorobenzyl]-1-(1-methyl-1H-pyrazol-4-yl)pyridazin-4(1H)-one]
17 | < 0.1 | CCn1cc(-n2ccc(=O)c(Cc3cccc(-c4ncc(OC5CN(C(=O)OC(C)(C)C)C5)cn4)c3)n2)cn1 [Example 289, tert-butyl 3-{[2-(3-{[1-(1-ethyl-1H-pyrazol-4-yl)-4-oxo-1,4-dihydropyridazin-3-yl]methyl}phenyl)pyrimidin-5-yl]oxy}azetidine-1-carboxylate]
18 | < 0.1 | CN(CCOC(=O)Nc1cccc(Cc2nn(-c3cc(F)c(F)c(F)c3)ccc2=O)c1)c1ccccc1 [Example 550, 2-[methyl(phenyl)amino]ethyl (3-{[4-oxo-1-(3,4,5-trifluorophenyl)-1,4-dihydropyridazin-3-yl]methyl}phenyl)carbamate]

Row | IC50 [µM] | Compound
19 | < 0.1 | CCOC(=O)Nc1cccc(Cc2nn(-c3cncc(F)c3)ccc2=O)c1 [Example 34, ethyl (3-{[1-(5-fluoropyridin-3-yl)-4-oxo-1,4-dihydropyridazin-3-yl]methyl}phenyl)carbamate]
20 | 1 to 3 | CCOc1cnc(-c2cccc(Oc3nn(-c4cnn(C)c4)ccc3=O)c2)nc1 [Example 755, 3-[3-(5-Ethoxypyrimidin-2-yl)phenoxy]-1-(1-methyl-1H-pyrazol-4-yl)pyridazin-4(1H)-one]
21 | < 0.1 | CCOc1cnc(-c2cccc(Cc3nn(-c4cccc(F)c4)ccc3=O)c2)nc1 [Example 725, 3-(3-(5-Ethoxypyrimidin-2-yl)benzyl)-1-(3-fluorophenyl)pyridazin-4(1H)-one]
22 | < 0.1 | Cn1cc(-n2ccc(=O)c(Cc3cccc(NC(=O)OCC4CCCOC4)c3)n2)cn1 (racemic) [Example 569, rac-tetrahydro-2H-pyran-3-ylmethyl (3-{[1-(1-methyl-1H-pyrazol-4-yl)-4-oxo-1,4-dihydropyridazin-3-yl]methyl}phenyl)carbamate]
23 | < 0.1 | COCCOc1cnc(-c2cccc(Cc3nn(-c4cc(F)c(F)c(F)c4)ccc3=O)c2)nc1 [Example 318, 3-{3-[5-(2-methoxyethoxy)pyrimidin-2-yl]benzyl}-1-(3,4,5-trifluorophenyl)pyridazin-4(1H)-one]
24 | < 0.1 | Cn1cc(-n2ccc(=O)c(Cc3cccc(-c4ncc(-c5cccnc5)cn4)c3)n2)cn1 [Example 412, 1-(1-methyl-1H-pyrazol-4-yl)-3-[3-(5-pyridin-3-ylpyrimidin-2-yl)benzyl]pyridazin-4(1H)-one]
25 | < 0.1 | CN1CCN(CCCOC(=O)Nc2cccc(Cc3nn(-c4cc(F)cc(F)c4)ccc3=O)c2)CC1 [Example 518]
26 | < 0.1 | CCOc1cnc(-c2cccc(C(C)c3nn(-c4cnn(CCO)c4)ccc3=O)c2)nc1 (single isomer, unassigned) [Example 256, 3-{(1R or S)-1-[3-(5-ethoxypyrimidin-2-yl)phenyl]ethyl}-1-[1-(2-hydroxyethyl)-1H-pyrazol-4-yl]pyridazin-4(1H)-one]
27 | < 0.1 | COCCOc1cnc(-c2cccc(Cc3nn(-c4ccc(Cl)c(F)c4)ccc3=O)c2)nc1 [Example 153, 1-(4-chloro-3-fluorophenyl)-3-{3-[5-(2-methoxyethoxy)pyrimidin-2-yl]benzyl}pyridazin-4(1H)-one]
28 | < 0.1 | CCn1cc(-n2ccc(=O)c(C(C)c3cccc(-c4ncc(OCCn5cccn5)cn4)c3)n2)cn1 (single isomer, unassigned) [Example 303, 1-(1-ethyl-1H-pyrazol-4-yl)-3-[(1R or S)-1-(3-{5-[2-(1H-pyrazol-1-yl)ethoxy]pyrimidin-2-yl}phenyl)ethyl]pyridazin-4(1H)-one]
29 | < 0.1 | Cn1cc(-n2ccc(=O)c(Cc3cccc(NC(=O)NCc4ccccc4)c3)n2)cn1 [Example 490, 1-benzyl-3-(3-{[1-(1-methyl-1H-pyrazol-4-yl)-4-oxo-1,4-dihydropyridazin-3-yl]methyl}phenyl)urea]
30 | < 0.1 | Cn1cc(-n2ccc(=O)c(Cc3cccc(-c4ncc(OCc5ccncc5)cn4)c3)n2)cn1 [Example 353, 1-(1-Methyl-1H-pyrazol-4-yl)-3-{3-[5(pyridin-4-ylmethoxy)pyrimidin-2-yl]benzyl}pyridazin-4(1H)-one]
31 | < 0.1 | CCc1nc(-c2cccc(Cc3nn(-c4cnn(C)c4)ccc3=O)c2)no1 [Example 739, 3-[3-(5-Ethyl-1,2,4-oxadiazole-3-yl)benzyl]-1-(1-methyl-1H-pyrazol-4-yl)pyridazin-4(1H)-one]
32 | < 0.1 | O=C(Nc1cccc(Cc2nn(-c3cc(F)c(F)c(F)c3)ccc2=O)c1)OCC1COCCO1 (racemic) [Example 513, rac-1,4-dioxan-2-ylmethyl (3-{[4-oxo-1-(3,4,5-trifluorophenyl)-1,4-dihydropyridazin-3-yl]methyl}phenyl)carbamate]
33 | 0.1 to 1 | Cc1noc(C)c1-c1cnc(-c2cccc(Cc3nn(-c4cnn(C)c4)ccc3=O)c2)nc1 [Example 424, 3-{3-[5-(3,5-dimethylisoxa-zol-4-yl)pyrimidin-2-yl]benzyl}-1-(1-methyl-1H-pyrazol-4-yl)pyridazin-4(1H)-one]
34 | < 0.1 | O=C(Nc1cccc(Cc2nn(-c3cc(F)cc(F)c3)ccc2=O)c1)OCCN1CCS(=O)(=O)CC1 [Example 517, 2-(1,1-dioxidothio-morpholin-4-yl)ethyl (3-{[1-(3,5-difluorophenyl)-4-oxo-1,4-dihydropyridazin-3-yl]methyl}phenyl)carbamate]
35 | < 0.1 | COCCOC(=O)Nc1cccc(Cc2nn(-c3cccc(C#N)c3)ccc2=O)c1 [Example 502, 2-methoxyethyl (3-{[1-(3-cyanophenyl)-4-oxo-1,4-dihydropyridazin-3-yl]methyl}phenyl)carbamate]
